{"source": "patent US20140030341A1", "about": "“POLYMERS AND METHODS FOR THE TREATMENT OF PAIN” (RUTGERS, THE STATE UNIVERSITY OF NEW JERSEY, priority 2011, published 2014)", "key": {"[1]": {"conditions": "37° C., pH 7.4 buffer, HPLC", "description": "The system was connected to a Dell computer running Empire software. Samples were filtered using 0.22 μm poly(vinylidine fluoride) syringe filters (Fisher). […] Mobile phase used was composed of 50 mM KH2PO4, 2.5 mM sodium dodecyl sulfate, 25% acetonitrile, 75% water at pH 3.\nIn vitro degradation studies. Diacid 3 (5.0 mg, triplicate) was placed into scintillation vials and 20.00 mL phosphate buffered saline (PBS) pH 7.4 added. Samples were incubated at 37° C. under constant shaking (60 rpm) in an Excella E25 Incubator Shaker (New Brunswick Scientific). PBS (1.00 mL) was removed at predetermined time points (2 h, 5 h, 10 h, and daily starting on day 1) and replaced with fresh PBS (1.00 mL). The pH was checked using an Accumet® Research AR15 pH meter (Fisher Scientific) and adjusted using 0.50 M NaOH when needed. Samples were immediately analyzed by HPLC using the conditions outlined above.\nSamples were incubated at 37° C. under constant shaking (60 rpm) in an Excella E25 Incubator Shaker (New Brunswick Scientific). PBS (20.00 mL) was removed daily and replaced with fresh PBS. Samples were analyzed by HPLC."}, "[2]": {"test_system": "3T3 fibroblasts cells (NIH 3T3 fibroblast cell line)", "description": "Cytocompatibility was evaluated by culturing 3T3 fibroblasts cells (NIH 3T3 fibroblast cell line) in diacid- and/or polymer-containing medium at concentrations of 0.10 and 0.01 mg/mL Cell culture medium consisted of Dulbecco's modified Eagle's medium (DMEM), 10 vol. % fetal bovine serum (Atlanta Biologicals, Lawrenceville, Ga.), 1% 1-glutamate, and 1% penicillin/streptomycin. Fibroblasts were seeded at a density of 2,000 cells/well in 96 well plates containing 150 μL of culture medium. The positive control consisted of fibroblasts with cell culture media only and the negative control consisted of fibroblasts with cell culture media and 5% 200-proof ethanol (PHARMCO-AAPER). […] Cell viability was determined by using Calcein AM and ethidium homodimer-1 staining (Molecular Probes) according to the manufacturer's protocol and the results normalized to the positive control. […] Experiments were performed in quadruplicates."}}}
{"smiles": "CN1CC[C@]23c4c5ccc(OC(=O)CCCC(=O)O)c4O[C@H]2[C@@H](OC(=O)CCCC(=O)O)C=C[C@H]3[C@H]1C5", "note": "[Diacid 3]", "values": [{"measurement": "hydrolytic degradation pathway", "setting": "[1]", "result": "hydrolyzes into a monoacid"}, {"measurement": "cell viability vs positive control (FIG. 7A)", "setting": "[2]; 0.10 mg/mL, 95% confidence level", "result": "no statistical differences"}, {"measurement": "cytotoxicity towards fibroblasts", "setting": "[2]; 0.10 and 0.01 mg/mL", "result": "non-cytotoxic"}, {"measurement": "cell viability vs positive control (statistical analysis)", "setting": "[2]; 0.10 and 0.01 mg/mL, 24, 48 and 72 h, 95% confidence level", "result": "no significant differences"}]}
